Measurements from ChEMBL document CHEMBL1649553, “Characterization of ermA in macrolide-susceptible strains of methicillin-resistant Staphylococcus aureus” (2009).
Values after ≈ are worked out from the molar mass of the structure shown.

Test system: Staphylococcus aureus
Experiment: Antibacterial activity against methicillin-resistant Staphylococcus aureus
Format: functional

## CC[C@H]1OC(=O)[C@H](C)[C@@H](O[C@H]2C[C@@](C)(OC)[C@@H](O)[C@H](C)O2)[C@H](C)[C@@H](O[C@@H]2O[C@H](C)C[C@H](N(C)C)[C@H]2O)[C@](C)(O)C[C@@H](C)C(=O)[C@H](C)[C@@H](O)[C@]1(C)O [ERYTHROMYCIN]
  MIC: 0.25 mg/L (≈ 0.341 µM)

## CCC[C@@H]1C[C@@H](C(=O)N[C@@H]([C@H]2O[C@H](SC)[C@H](O)[C@@H](O)[C@H]2O)[C@H](C)Cl)N(C)C1 [CLINDAMYCIN]
  MIC: 0.5 mg/L (≈ 1.18 µM)
